{"source": "paper PMC6277198", "about": "“Molecular basis for activation of lecithin:cholesterol acyltransferase by a compound that increases HDL cholesterol” (eLife, 2018)", "assay_in_all_cases": "MUP hydrolysis (esterase) assay", "type_in_all_cases": "biochemical", "key": {"WT LCAT": {"target": "T1, WT LCAT (Homo sapiens, UniProt P04180)", "T1 sequence (P04180 25-440)": "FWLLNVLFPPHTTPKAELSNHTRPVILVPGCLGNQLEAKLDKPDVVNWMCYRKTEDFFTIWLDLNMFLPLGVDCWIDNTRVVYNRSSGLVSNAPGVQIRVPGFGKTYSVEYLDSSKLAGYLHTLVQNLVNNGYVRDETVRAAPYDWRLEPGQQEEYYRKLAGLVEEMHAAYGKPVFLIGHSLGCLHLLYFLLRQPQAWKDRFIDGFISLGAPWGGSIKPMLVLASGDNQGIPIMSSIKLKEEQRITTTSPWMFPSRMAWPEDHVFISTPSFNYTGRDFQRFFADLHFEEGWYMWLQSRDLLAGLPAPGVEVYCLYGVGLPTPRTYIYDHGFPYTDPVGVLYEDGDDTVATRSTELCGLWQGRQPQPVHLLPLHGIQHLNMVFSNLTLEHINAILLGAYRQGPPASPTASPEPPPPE", "parameters": "hydrolysis of 4-methylumbelliferyl palmitate (MUP) by full-length LCAT; made in house; host or cells: HEK293F (transient transfection, secreted)", "description": "(§1) The lipase activity of LCAT was measured using MUP as a substrate. The assay was performed at room temperature in 0.1 M sodium phosphate buffer, pH 7.4 containing 0.01% Triton X-100. 4 μL of LCAT (6 nM final concentration) were dispensed into a 1536-well Greiner solid black plate. The same volume of assay buffer was dispensed into column 1 and 2 for a no-enzyme control. […] After 15 min incubation, 2 μL MUP (16 μM final concentration) was added to initiate the reaction. The hydrolysis of MUP was monitored using a ViewLux plate reader (excitation 380 nm/emission 450 nm) for 20 min. The fluorescence signal was normalized against no-activator and no-enzyme control after subtraction of background signal (t = 0 min). To plot percent activation, in each assay 100% was set at the rate of LCAT or LCAT variant without compound. The resulting data were fitted to a sigmoidal dose response curve."}, "LCAT Y51S/G71I": {"target": "T2, LCAT Y51S/G71I (Homo sapiens, UniProt P04180, G95I/Y75S)", "T2 construct": "hydrolysis of 4-methylumbelliferyl palmitate (MUP) by full-length LCAT; made in house; host or cells: HEK293F (transient transfection, secreted)", "T2 sequence (P04180 25-440 Y75S/G95I)": "T1 sequence (P04180 25-440) with Y51S, G71I", "conditions": "compound titrated from 0.04 to 9.5 μM", "description": "as §1"}, "LCAT G71I": {"target": "T3, LCAT G71I (Homo sapiens, UniProt P04180, G95I)", "T3 construct": "hydrolysis of 4-methylumbelliferyl palmitate (MUP) by full-length LCAT; made in house; host or cells: HEK293F (transient transfection, secreted)", "T3 sequence (P04180 25-440 G95I)": "T1 sequence (P04180 25-440) with G71I", "conditions": "compound titrated from 0.04 to 9.5 μM", "description": "as §1"}, "LCAT Y51S": {"target": "T4, LCAT Y51S (Homo sapiens, UniProt P04180, Y75S)", "T4 construct": "hydrolysis of 4-methylumbelliferyl palmitate (MUP) by full-length LCAT; made in house; host or cells: HEK293F (transient transfection, secreted)", "T4 sequence (P04180 25-440 Y75S)": "T1 sequence (P04180 25-440) with Y51S", "description": "as §1"}, "[1]": {"conditions": "WT, compound titrated from 0.04 to 9.5 μM, read-out: MUP assay EC50"}, "[2]": {"conditions": "Y51S, compound titrated from 0.04 to 9.5 μM"}, "[3]": {"conditions": "WT, compound titrated from 0.04 to 9.5 μM"}}, "note": "Substitutions are numbered along the chain they refer to. “And” between values parts separate entries of the source, which are not always exact repeats. Equal entries are not always repeated. “Also recorded” adds a separate entry of the source. Where two headings read alike, the source gives them in different places."}
{"smiles": "N#Cc1cnc(N2CCC(c3n[nH]c4c3C(O)(C(F)(F)F)CC(=O)N4)CC2)cc1C(F)(F)F", "note": "(centres unmarked) [compound 1, 6-(4-(4-Hydroxy-6-oxo-4-(trifluoromethyl)−4,5,6,7-tetrahydro-1H-pyrazolo[3,4-b]pyridin-3-yl)piperidin-1-yl)−4-(trifluoromethyl)nicotinonitrile]", "values": [{"measurement": "EC50", "setting": "WT LCAT; [1]", "value": "160 ± 10", "unit": "nM"}, {"measurement": "EC50", "setting": "WT LCAT; full-length WT LCAT, read-out: EC50, MUP hydrolysis", "value": "~150", "unit": "nM"}, {"measurement": "Fold activation, MUP esterase assay", "setting": "LCAT Y51S/G71I", "value": "1.3 ± 0.3", "unit": "fold"}, {"measurement": "MUP assay EC50", "setting": "LCAT Y51S/G71I", "value": "no response; also recorded: no effect"}, {"measurement": "EC50", "setting": "LCAT G71I", "value": "> 5000", "unit": "nM"}, {"measurement": "Fold activation, MUP esterase assay", "setting": "LCAT G71I", "value": "1.5 ± 0.4", "unit": "fold"}, {"measurement": "EC50", "setting": "LCAT Y51S; [2]", "value": "590 ± 30", "unit": "nM"}, {"measurement": "Fold activation, MUP esterase assay", "setting": "LCAT Y51S; [2]", "value": "1.9 ± 0.2", "unit": "fold"}, {"measurement": "MUP EC50 of Y51S relative to WT", "setting": "LCAT Y51S; fold higher than WT", "value": 4, "unit": "fold"}]}
{"smiles": "O=C1CC(O)(C(F)(F)F)c2c(C3CCN(c4cnc(C(F)(F)F)cn4)CC3)n[nH]c2N1", "note": "(centres unmarked) [compound 2, 4-Hydroxy-4-(trifluoromethyl)−3-(1-(5-(trifluoromethyl)pyrazin-2-yl)piperidin-4-yl)−4,5-dihydro-1H-pyrazolo[3,4-b]pyridin-6(7H)-one]", "values": [{"measurement": "EC50", "setting": "WT LCAT; [1]", "value": "280 ± 40", "unit": "nM"}, {"measurement": "Fold activation, MUP esterase assay", "setting": "LCAT Y51S/G71I", "value": "0.99 ± 0.03", "unit": "fold"}, {"measurement": "MUP assay EC50", "setting": "LCAT Y51S/G71I", "value": "no effect"}, {"measurement": "EC50", "setting": "LCAT G71I", "value": "> 5000", "unit": "nM"}, {"measurement": "Fold activation, MUP esterase assay", "setting": "LCAT G71I", "value": "1.7 ± 0.2", "unit": "fold"}, {"measurement": "EC50", "setting": "LCAT Y51S; [2]", "value": "740 ± 200", "unit": "nM"}, {"measurement": "Fold activation, MUP esterase assay", "setting": "LCAT Y51S; [2]", "value": "1.8 ± 0.1", "unit": "fold"}]}
{"smiles": "O=C1CC(O)(C(F)(F)F)c2c(ncn2C2CCN(c3cnc(C(F)(F)F)cn3)CC2)N1", "note": "(centres unmarked) [compound 3, 7-Hydroxy-7-(trifluoromethyl)−1-(1-(5-(trifluoromethyl)pyrazin-2-yl)piperidin-4-yl)−6,7-dihydro-1H-imidazo[4,5-b]pyridin-5(4H)-one]", "values": [{"measurement": "EC50", "setting": "WT LCAT; [1]", "value": "320 ± 50", "unit": "nM"}, {"measurement": "Fold activation, MUP esterase assay", "setting": "LCAT Y51S/G71I", "value": "1.1 ± 0.06", "unit": "fold"}, {"measurement": "MUP assay EC50", "setting": "LCAT Y51S/G71I", "value": "no effect"}, {"measurement": "EC50", "setting": "LCAT G71I", "value": "> 5000", "unit": "nM"}, {"measurement": "Fold activation, MUP esterase assay", "setting": "LCAT G71I", "value": "1.5 ± 0.2", "unit": "fold"}, {"measurement": "EC50", "setting": "LCAT Y51S; [2]", "value": "1600 ± 400", "unit": "nM"}, {"measurement": "Fold activation, MUP esterase assay", "setting": "LCAT Y51S; [2]", "value": "1.9 ± 0.2", "unit": "fold"}]}
{"smiles": "O=C1CC(O)(C(F)(F)F)c2c(ncn2C2CCNCC2)N1", "note": "(centres unmarked) [compound 6, 7-Hydroxy-1-(piperidin-4-yl)−7-(trifluoromethyl)−6,7-dihydro-1H-imidazo[4,5-b]pyridin-5(4H)-one]", "values": [{"measurement": "Fold activation, MUP esterase assay", "setting": "WT LCAT; [3]", "value": "no activating effect"}, {"measurement": "MUP assay EC50", "setting": "WT LCAT; [3]", "value": "no effect"}, {"measurement": "Fold activation, MUP esterase assay", "setting": "LCAT Y51S/G71I", "value": "no effect"}, {"measurement": "MUP assay EC50", "setting": "LCAT Y51S/G71I", "value": "no effect"}, {"measurement": "Fold activation, MUP esterase assay", "setting": "LCAT G71I", "value": "no effect"}, {"measurement": "MUP assay EC50", "setting": "LCAT G71I", "value": "no effect"}, {"measurement": "Fold activation, MUP esterase assay", "setting": "LCAT Y51S; [2]", "value": "no effect"}, {"measurement": "MUP assay EC50", "setting": "LCAT Y51S; [2]", "value": "no effect"}]}
{"smiles": "O=c1cc(C(F)(F)F)c2c(ncn2C2CCN(c3cnc(C(F)(F)F)cn3)CC2)[nH]1", "note": "[compound 8, 7-(trifluoromethyl)−1-(1-(5-(trifluoromethyl)pyrazin-2-yl)piperidin-4-yl)−1H-imidazo[4,5-b]pyridin-5(4H)-one]", "values": [{"measurement": "Fold activation, MUP esterase assay", "setting": "WT LCAT; [3]", "value": "3.7 fold and 3.7 ± 0.9 fold"}, {"measurement": "EC50", "setting": "WT LCAT; [1]", "value": "4600 ± 60", "unit": "nM"}, {"measurement": "EC50", "setting": "LCAT Y51S/G71I", "value": "> 10000", "unit": "nM"}, {"measurement": "Fold activation, MUP esterase assay", "setting": "LCAT Y51S/G71I", "value": "1.1 ± 0.07", "unit": "fold"}, {"measurement": "EC50", "setting": "LCAT G71I", "value": "> 10000", "unit": "nM"}, {"measurement": "Fold activation, MUP esterase assay", "setting": "LCAT G71I", "value": "1.2 ± 0.1", "unit": "fold"}, {"measurement": "EC50", "setting": "LCAT Y51S; [2]", "value": "> 10000", "unit": "nM"}, {"measurement": "Fold activation, MUP esterase assay", "setting": "LCAT Y51S; [2]", "value": "2.8 ± 0.6", "unit": "fold"}]}
{"smiles": "O=C1CC(O)(C(F)(F)F)c2c(C3CCN(c4cnc(C(F)(F)F)cn4)CC3)noc2N1", "note": "(centres unmarked) [compound 9, 4-hydroxy-4-(trifluoromethyl)−3-(1-(5-(trifluoromethyl)pyrazin-2-yl)piperidin-4-yl)−4,5-dihydroisoxazolo[5,4-b]pyridin-6(7H)-one]", "values": [{"measurement": "Fold activation, MUP esterase assay", "setting": "WT LCAT; [3]", "value": "1.6 fold and 1.6 ± 0.2 fold"}, {"measurement": "EC50", "setting": "WT LCAT; [1]", "value": "7700 ± 2000", "unit": "nM"}, {"measurement": "Fold activation, MUP esterase assay", "setting": "LCAT Y51S/G71I", "value": "0.97 ± 0.003", "unit": "fold"}, {"measurement": "MUP assay EC50", "setting": "LCAT Y51S/G71I", "value": "no effect"}, {"measurement": "Fold activation, MUP esterase assay", "setting": "LCAT G71I", "value": "0.96 ± 0.01", "unit": "fold"}, {"measurement": "MUP assay EC50", "setting": "LCAT G71I", "value": "no effect"}, {"measurement": "EC50", "setting": "LCAT Y51S; [2]", "value": "> 10000", "unit": "nM"}, {"measurement": "Fold activation, MUP esterase assay", "setting": "LCAT Y51S; [2]", "value": "1.1 ± 0.07", "unit": "fold"}]}
